Reference: US8389563B2, “C-substituted diindolylmethane compositions and methods for the treatment of multiple cancers” (The Texas A&M University System, priority 2000, dated 2013)
“Also recorded” adds a separate entry of the source. Like-named read-outs stand apart in the source and are kept apart here. Marks after values point to notes of the source that are not given here.

Columns and labels:
[1] = target: T1, Ah receptor (Rattus norvegicus, UniProt P41738); experiment: Ah receptor competitive binding
T1 sequence (P41738 10-853): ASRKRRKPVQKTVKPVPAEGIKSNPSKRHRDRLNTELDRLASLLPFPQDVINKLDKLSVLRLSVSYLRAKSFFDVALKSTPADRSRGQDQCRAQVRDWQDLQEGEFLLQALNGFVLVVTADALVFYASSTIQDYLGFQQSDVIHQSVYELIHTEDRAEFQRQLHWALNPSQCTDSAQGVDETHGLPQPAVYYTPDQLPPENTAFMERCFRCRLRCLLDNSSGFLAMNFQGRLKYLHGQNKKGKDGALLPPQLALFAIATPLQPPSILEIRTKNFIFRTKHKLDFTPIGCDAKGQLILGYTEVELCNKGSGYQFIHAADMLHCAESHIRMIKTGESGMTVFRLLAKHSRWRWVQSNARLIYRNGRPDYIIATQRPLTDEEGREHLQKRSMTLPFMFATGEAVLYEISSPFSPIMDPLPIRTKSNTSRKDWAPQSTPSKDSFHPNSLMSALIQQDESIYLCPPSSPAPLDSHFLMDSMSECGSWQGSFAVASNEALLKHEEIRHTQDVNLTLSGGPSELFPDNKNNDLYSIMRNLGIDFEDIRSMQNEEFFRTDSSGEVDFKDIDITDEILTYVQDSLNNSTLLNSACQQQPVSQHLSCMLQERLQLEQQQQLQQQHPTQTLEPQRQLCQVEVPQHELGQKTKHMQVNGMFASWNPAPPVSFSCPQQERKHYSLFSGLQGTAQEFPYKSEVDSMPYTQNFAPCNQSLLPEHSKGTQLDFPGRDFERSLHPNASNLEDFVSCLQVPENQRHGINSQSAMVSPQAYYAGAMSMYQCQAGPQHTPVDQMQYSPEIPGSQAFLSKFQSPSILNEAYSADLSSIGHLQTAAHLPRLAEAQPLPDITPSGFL

[2] = tested on: TCCSUP human bladder cancer cell line; experiment: Cell proliferation of TCCSUP bladder cancer cells; type: cell-based; details: for Proliferation of TCCSUP human bladder cancer cells: 0.1-10 μM, cell growth over 4-10 days; for Lowest concentration at which TCCSUP cells were inhibited: lowest concentration tested
Experimental: (§1) Initial studies used TCCSUP and J82 human bladder cancer cell lines that were maintained in RPMI culture media supplemented with 10% fetal bovine serum. Cell proliferation studies were carried out in multi-well plates, and compounds (in DMSO, 0.1% vol./vol.) were added and cell growth was determined over a period of 4 10 days. The growth inhibitory properties of DIM and related analogs were determined using the following prototypical compounds: DIM, 5,5′-dimethylDIM (5-Me-DIM), 2,2′-dimethylDIM (2-Me-DIM), and 5,5′-dichloroDIM (5-Cl-DIM) at concentrations from 0.1 10 μM.
as §1, with “Initial studies on the possible protective role for DIM compounds in bladder cancer used TCCSUP” for “Initial studies used TCCSUP”

[3] = tested on: J82 human bladder cancer cell line; experiment: Cell proliferation of J82 bladder cancer cells; type: cell-based; details: 0.1-10 μM, cell growth over 4-10 days
Experimental: as §1
as §1, with “Initial studies on the possible protective role for DIM compounds in bladder cancer used TCCSUP” for “Initial studies used TCCSUP”

[4] = tested on: HT-29 human colon cancer cells; experiment: Cell proliferation and apoptosis of HT-29 colon cancer cells; type: cell-based
Experimental: (§2) Studies with HT-29 human colon cancer cells also indicate that DIM and related analogs protect against colon cancer. HT-29 cells were grown in DMEM and serum and treated with 25 μM DIM and 4,4′-dichloroDIM. After 72 hr, there was a 73 and 92% decrease in cell proliferation, respectively, and these antiproliferative effects could be observed with cell concentrations as low as 10 μM.
as §2, with “Preliminary studies” for “Studies”, “hours,” for “hr,”, “with” for “with cell”

[5] = tested on: mitogen-activated protein kinase (MAPKK); experiment: MAPKK-induced pSRE reporter activity in MCF-7 cells; type: cell-based; details: 1 or 5 μM, MCF-7 cells transfected with pMAPKK and pSRE
Excerpt: Therefore, we have been investigating the inhibitory effects of DIMs on kinase activities and our initial studies have examined inhibition of mitogen-activated protein kinase (MAPKK) which regulates expression of multiple genes involved in cell proliferation. MCF-7 cells are transfected with a constitutively active MAPKK expression plasmid (pMAPKK), and induction of activity is monitored through activation of the construct pSRE which contains a MAPKK-inducible serum response element (SRE) from the cfos protooncogene (Duan et al., “Estrogen receptor-mediated activation of the serum response element in MCF-7 cells through MAPK-dependent phosphorylation of Elk-1” J. Biol. Chem. 276:11590 11598, 2001).

[6] = tested on: T47D human breast cancer cells; experiment: Estrogenic and antiestrogenic activity in T47D cells (proliferation, alone or with 1 nM E2); type: cell-based; details: in combination with 1 nM E2
Excerpt: In a separate study, it was also shown that the same compounds and other C-substituted DIMs were also antiestrogenic in T47D cells, and these include the C-p-phenol and C-p-anisole compounds in which R1═CH3 (methyl) (i.e., NMe-CPh-OHDIM and NMe-CPh-MeODIM, respectively) (FIG. 3).

[7] = tested on: MCF-7 human breast cancer cells; experiment: Proliferation of MCF-7 breast cancer cells, alone or with 1 nM E2; type: cell-based; details: for E2-induced MCF-7 cell proliferation: co-treated with 1 nM E2; for Growth of MCF-7 cells, compound alone: up to 10 μM
[8] = tested on: DMBA-induced mammary tumor; experiment: DMBA-induced rat mammary tumor model; type: in vivo, female Sprague-Dawley rats; details: 1.0 mg/kg every 2 days; for Mammary tumor growth in DMBA-induced rats: tumor volumes over 21 days
[9] = Body/organ weights, EROD and histopathology in the DMBA-induced rat study; type: in vivo, female Sprague-Dawley rats; details: 1.0 mg/kg every 2 days

Question: Which IC50 [1] does the source give for `Cn1cc(C(c2ccc(Cl)cc2)c2cn(C)c3ccccc23)c2ccccc21` here?
Answer: 0.55 nM

Question: Which results are given for `Cc1[nH]c2ccccc2c1Cc1c(C)[nH]c2ccccc12` [2,2′-dimethylDIM, 2,2′-dimethyl-diindolylmethane]?
Answer: Proliferation of TCCSUP human bladder cancer cells [2]: significantly inhibited; Lowest concentration at which TCCSUP cells were inhibited [2]: 0.1 µM; Proliferation of J82 human bladder cancer cells [3]: significantly inhibited

Question: Which “Lowest concentration at which antiproliferative effects could be observed in HT-29 cells” value [4] does the source give for `Clc1cccc2[nH]cc(Cc3c[nH]c4cccc(Cl)c34)c12` [4,4′-dichloroDIM] here?
Answer: 10 µM

Question: And the “Programmed cell death accompanying growth inhibition in HT-29 cells” value [4]?
Answer: programmed cell death, or apoptosis; also recorded: programmed cell death or apoptosis

Question: And the “Decrease in HT-29 cell proliferation” value ([4]; 25 μM, after 72 hr)?
Answer: 92%

Question: For `Clc1ccc2[nH]cc(Cc3c[nH]c4ccc(Cl)cc34)c2c1` [5,5′-dichloroDIM, 5,5′-dichloro-diindolylmethane], which “Proliferation of TCCSUP human bladder cancer cells” value [2] is on record?
Answer: significantly inhibited

Question: And the “Lowest concentration at which TCCSUP cells were inhibited” value [2]?
Answer: 0.1 µM

Question: And the “Proliferation of J82 human bladder cancer cells” value [3]?
Answer: significantly inhibited

Question: Which “Proliferation of TCCSUP human bladder cancer cells” value [2] does the source give for `Cc1ccc2[nH]cc(Cc3c[nH]c4ccc(C)cc34)c2c1` [5,5′-dimethylDIM, 5,5′-dimethyl-diindolylmethane] here?
Answer: significantly inhibited

Question: And the “Lowest concentration at which TCCSUP cells were inhibited” value [2]?
Answer: 0.1 µM

Question: What about the “Proliferation of J82 human bladder cancer cells” value [3] of the same compound?
Answer: significantly inhibited

Question: And the “MAPKK-induced (pSRE) activity” value [5]?
Answer: inhibited MAPKK-induced activity

Question: Which “MAPKK-induced (pSRE) activity” value [5] does the source give for `Cc1ccc2c(Cc3c[nH]c4cc(C)ccc34)c[nH]c2c1` [6,6′-dimethlyDIM] here?
Answer: inhibited MAPKK-induced activity

Question: For `c1ccc(C(c2c[nH]c3ccccc23)c2c[nH]c3ccccc23)cc1` [C-PhDIM], which “Antiestrogenic activity in T47D cells” value [6] is on record?
Answer: antiestrogenic

Question: What about the IC50 [1] of the same compound?
Answer: 98 nM

Question: What about the “E2-induced MCF-7 cell proliferation” value ([7]; listed as C-phenylDIM) of the same compound?
Answer: hormone-induced proliferative response was inhibited

Question: And the “E2-induced MCF-7 cell proliferation” value ([7]; listed as C—C6H5)?
Answer: significant inhibition of E2-induced cell proliferation

Question: And the “Growth of MCF-7 cells, compound alone” value ([7]; listed as C-phenylDIM)?
Answer: did not induce breast cancer cell proliferation

Question: And the “Growth of MCF-7 cells, compound alone” value ([7]; listed as C—C6H5)?
Answer: do not affect growth

Question: What about the Tumor volume [8] of the same compound?
Answer: 1025 +/− 245* mm3

Question: And the Tumor weight [8]?
Answer: 1.40 +/− 0.4* g

Question: What about the “Mammary tumor growth in DMBA-induced rats” value (“Mammary tumor growth” for short) [8] of the same compound?
Answer: potent inhibition of mammary tumor growth

Question: And the “Mammary tumor growth” value ([8]; listed as C-phenylDIM)?
Answer: potent inhibition of mammary tumor growth

Question: What about the “Mammary tumor growth” value ([8]; listed as C—PhDIM) of the same compound?
Answer: Illustrates inhibition of DMBA-induced mammary tumor growth in female Sprague-

Question: What about the “Changes in body/organ weights or tissue histopathology” value [9] of the same compound?
Answer: not accompanied by changes in body/organ weights or altered tissue histopathology

Question: And the EROD [9]?
Answer: 309 ± 102 pmol/mg/min

Question: What about the Heart [9] of the same compound?
Answer: 0.38 +/− 0.03 % body weight

Question: What about the Kidney [9] of the same compound?
Answer: 0.33 +/− 0.01 % body weight

Question: And the Liver [9]?
Answer: 3.2 +/− 0.1 % body weight

Question: And the Spleen [9]?
Answer: 0.33 +/− 0.05 % body weight

Question: And the Uterus [9]?
Answer: 0.19 +/− 0.02 % body weight

Question: And the “Changes in body/organ weights or tissue histopathology” value ([9]; listed as C-phenylDIM)?
Answer: not accompanied by changes in body/organ weights on altered tissue histopathology

Question: Which “Antiestrogenic activity in T47D cells” value [6] does the source give for `CC(c1c[nH]c2ccccc12)c1c[nH]c2ccccc12` [C-methylDIM] here?
Answer: antiestrogenic

Question: What about the IC50 [1] of the same compound?
Answer: 11 nM

Question: And the “E2-induced MCF-7 cell proliferation” value [7]?
Answer: hormone-induced proliferative response was inhibited

Question: What about the “E2-induced MCF-7 cell proliferation” value ([7]; listed as C—CH3) of the same compound?
Answer: significant inhibition of E2-induced cell proliferation

Question: What about the “Growth of MCF-7 cells, compound alone” value [7] of the same compound?
Answer: did not induce breast cancer cell proliferation

Question: And the “Growth of MCF-7 cells, compound alone” value ([7]; listed as C—CH3)?
Answer: do not affect growth

Question: With `FC(F)(F)c1ccc(C(c2c[nH]c3ccccc23)c2c[nH]c3ccccc23)cc1` [C—Ph—CF3DIM] as the compound, how does the “Mammary tumor growth” value [8] read?
Answer: Illustrates inhibition of DMBA-induced mammary tumor growth in female and C—Ph—CF3DIM

Question: What does the source list for `Cn1cc(C(c2ccc(-c3ccccc3)cc2)c2cn(C)c3ccccc23)c2ccccc21` [NMe-C-BiphDIM]?
Answer: IC50 ([1]; read-out: IC50 competitive binding values, Ah receptor): 1.8 nM; Mammary tumor growth in DMBA-induced rats [8]: Illustrates inhibition of DMBA-induced mammary tumor growth in female Sprague-

Question: Which “Mammary tumor growth” value [8] does the source give for `Cn1cc(C(c2ccc(C(F)(F)F)cc2)c2cn(C)c3ccccc23)c2ccccc21` [NMe-C-Ph-CF3DIM] here?
Answer: Illustrates inhibition of DMBA-induced mammary tumor growth in female Sprague-

Question: With `COc1ccc(C(c2cn(C)c3ccccc23)c2cn(C)c3ccccc23)cc1` [NMe-C-Ph-MeODIM] as the compound, how does the “Antiestrogenic activity in T47D cells” value [6] read?
Answer: antiestrogenic

Question: And the “Mammary tumor growth” value [8]?
Answer: Illustrates inhibition of DMBA-induced mammary tumor growth in female Sprague-

Question: For `Cn1cc(C(c2ccccc2)c2cn(C)c3ccccc23)c2ccccc21` [NMe-C-PhDIM], which “Mammary tumor growth” value [8] is on record?
Answer: Illustrates inhibition of DMBA-induced mammary tumor growth in female Sprague-

Question: Which “Mammary tumor growth” value [8] does the source give for `Cc1ccc(C(c2cn(C)c3ccccc23)c2cn(C)c3ccccc23)cc1` [NMe-C-PhMeDIM] here?
Answer: Illustrates inhibition of DMBA-induced mammary tumor growth in female Sprague-

Question: Which “Antiestrogenic activity in T47D cells” value [6] does the source give for `Cn1cc(C(c2ccc(O)cc2)c2cn(C)c3ccccc23)c2ccccc21` [NMe-C-PhOHDIM] here?
Answer: antiestrogenic

Question: What about the “Mammary tumor growth” value [8] of the same compound?
Answer: Illustrates inhibition of DMBA-induced mammary tumor growth in female Sprague-
